# Source: EP0640594A1, “Hydantoin derivative as metalloprotease inhibitor” (FUJIREBIO INC., priority 1993, dated 1995)
# Experiments:
# ACE = ACE (Homo sapiens, UniProt P12821); experiment: in vitro inhibitory activity on ACE; format: biochemical; settings: 0.016 unit/ml ACE; 2.0 mM hippuryl-L-histidyl-L-leucine, pH 8.4, 37°C, 30 minutes
# Experimental: The inhibitory activity on ACE was measured according to the method described in Biochem. Pharmacolo., 20, 1637 (1971). That is, a 100 mM boric acid/sodium carbonate buffer solution (pH 8.4) containing 2.0 mM of hippuryl-L-histidyl-L-leucine, 0.016 unit/ml of ACE, 0.8 M of NaCl, and a predetermined amount of the sample compound was prepared and the reaction was carried out at 37°C for 30 minutes. The amount of hippuric acid produced by the ACE activity was measured to determine the inhibitory activity.
# NEP = target: T1, NEP (Rattus norvegicus, UniProt P07861); experiment: in vitro inhibitory activity on NEP; format: biochemical; settings: NEP from kidneys of male SD rats; 0.4 mM glutaryl-Ala-Ala-Phe-4-methoxy-β-naphthylamide, pH 7.4, 37°C, 1 hour
# T1 construct: The fractions with the NEP activity were collected, and was used as the enzyme source for the test; from tissue; host or cells: kidneys of male SD rats
# T1 sequence (P07861 1-750): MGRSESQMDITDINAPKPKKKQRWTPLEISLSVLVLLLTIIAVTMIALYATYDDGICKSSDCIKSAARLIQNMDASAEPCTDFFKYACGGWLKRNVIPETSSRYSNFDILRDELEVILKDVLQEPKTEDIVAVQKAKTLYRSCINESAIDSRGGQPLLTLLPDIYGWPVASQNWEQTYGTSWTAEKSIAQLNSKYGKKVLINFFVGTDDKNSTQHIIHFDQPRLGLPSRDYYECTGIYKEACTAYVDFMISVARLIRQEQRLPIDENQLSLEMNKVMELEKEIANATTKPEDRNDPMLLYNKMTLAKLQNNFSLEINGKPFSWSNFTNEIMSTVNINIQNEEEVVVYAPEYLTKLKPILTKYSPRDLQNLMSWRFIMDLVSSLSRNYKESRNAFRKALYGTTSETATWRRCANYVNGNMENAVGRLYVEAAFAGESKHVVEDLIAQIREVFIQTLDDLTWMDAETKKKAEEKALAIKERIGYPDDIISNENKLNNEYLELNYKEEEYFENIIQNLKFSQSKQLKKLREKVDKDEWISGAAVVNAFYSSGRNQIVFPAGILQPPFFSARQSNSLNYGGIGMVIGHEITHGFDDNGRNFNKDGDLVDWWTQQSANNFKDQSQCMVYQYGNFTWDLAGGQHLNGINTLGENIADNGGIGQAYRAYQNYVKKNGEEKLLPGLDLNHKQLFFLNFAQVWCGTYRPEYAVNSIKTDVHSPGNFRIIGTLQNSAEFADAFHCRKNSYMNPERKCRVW
# Experimental: NEP was prepared as follows in accordance with the process as described in Peptide, 9, 173 (1988). Kidneys of male SD rats were homogenized with 10 times by volume of a tris/HCl buffer solution (pH 7.0) containing mannitol and magnesium chloride. The homogenate was centrifuged (700 × g) to give a supernatant liquid. To the supernatant liquid was added n-octyl-β-D-glucoside in an amount to give a final concentration of 1 %, followed by stirring at 4°C for 1 hour, thereby solubilizing the enzyme. The solution was dialyzed against 5 mM HEPES/0.1% Triton (pH 7.4). The inner liquid was applied to a DE-52 column (2.5 cm i.d. × 15 cm) equilibrated with 5 mM HEPES/0.1% Triton (pH 7.4). The column was eluted with 500 ml of a NaCl solution having a linear concentration gradient of 0-300 mM. The fractions with the NEP activity were collected, and was used as the enzyme source for the test.
# The inhibitory activity on NEP was measured according to the method described in Biochemistry, 20, 4942 (1981). That is, 250 µl of a 50 mM tris/HCl buffer solution (pH 7.4) containing 0.4 mM of glutaryl-Ala-Ala-Phe-4-methoxy-β-naphthylamide, 0.25 unit/ml of leucine aminopeptidase, a predetermined amount of the sample compound and NEP was prepared and the reaction was carried out at 37°C for 1 hour. The amount of 4-methoxy-β-naphthylamide produced by the NEP activity was measured to determine the inhibitory activity.
# Sequence of ACE (P12821 30-1306, species assumed): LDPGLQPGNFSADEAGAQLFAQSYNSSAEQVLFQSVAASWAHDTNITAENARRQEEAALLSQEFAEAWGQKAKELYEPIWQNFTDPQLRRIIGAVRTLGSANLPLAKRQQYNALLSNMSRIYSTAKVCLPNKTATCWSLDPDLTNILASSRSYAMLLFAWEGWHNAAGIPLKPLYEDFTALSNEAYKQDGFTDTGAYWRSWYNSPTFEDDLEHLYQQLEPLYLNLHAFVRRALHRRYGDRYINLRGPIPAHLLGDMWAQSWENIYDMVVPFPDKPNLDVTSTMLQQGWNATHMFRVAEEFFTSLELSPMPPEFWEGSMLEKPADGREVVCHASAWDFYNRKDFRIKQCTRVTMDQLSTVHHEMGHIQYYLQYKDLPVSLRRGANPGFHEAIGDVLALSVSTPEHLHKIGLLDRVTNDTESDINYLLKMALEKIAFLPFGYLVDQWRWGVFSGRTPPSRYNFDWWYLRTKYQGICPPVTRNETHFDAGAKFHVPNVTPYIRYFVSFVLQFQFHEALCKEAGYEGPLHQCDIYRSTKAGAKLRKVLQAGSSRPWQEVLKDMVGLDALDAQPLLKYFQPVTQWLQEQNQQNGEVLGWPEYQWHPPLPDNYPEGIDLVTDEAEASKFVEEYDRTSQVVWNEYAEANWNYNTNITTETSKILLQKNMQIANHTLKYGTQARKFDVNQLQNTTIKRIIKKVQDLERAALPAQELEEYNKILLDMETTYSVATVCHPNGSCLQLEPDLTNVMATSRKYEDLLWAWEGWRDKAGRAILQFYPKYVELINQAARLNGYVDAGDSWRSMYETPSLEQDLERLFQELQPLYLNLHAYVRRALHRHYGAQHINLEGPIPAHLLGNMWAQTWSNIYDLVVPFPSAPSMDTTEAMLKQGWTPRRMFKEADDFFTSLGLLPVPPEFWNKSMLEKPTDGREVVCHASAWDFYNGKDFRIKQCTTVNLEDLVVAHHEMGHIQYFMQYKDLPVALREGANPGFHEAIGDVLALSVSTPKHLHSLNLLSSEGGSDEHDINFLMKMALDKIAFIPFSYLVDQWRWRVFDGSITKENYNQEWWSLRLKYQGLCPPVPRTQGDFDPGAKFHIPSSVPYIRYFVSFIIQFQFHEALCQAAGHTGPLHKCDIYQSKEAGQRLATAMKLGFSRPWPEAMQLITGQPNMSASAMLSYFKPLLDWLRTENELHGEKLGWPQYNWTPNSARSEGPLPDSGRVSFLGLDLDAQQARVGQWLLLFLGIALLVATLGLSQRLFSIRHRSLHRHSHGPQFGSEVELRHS
SMILES,IC50 (ACE) [nM],IC50 (NEP) [nM]
"O=C1CN(C2(C(=O)O)CCCCC2)C(=O)N1C(CS)Cc1ccccc1 (stereo not drawn) [Example 24, 1-(1-carboxycyclohexyl)-3-(1-mercapto-3-phenyl-2-propyl) hydantoin]",5200,
"CC(C)C[C@@H](C(=O)O)N1CC(=O)N(C(CS)Cc2ccccc2)C1=O (stereo partly drawn) [Example 28, 1-[(1S)-1-carboxy-3-methylbutyl]-3-(1-mercapto-3-phenyl-2-propyl)hydantoin]",,220
"CC(O)C1C(=O)N(C(CS)Cc2ccccc2)C(=O)N1CC(=O)O (stereo not drawn) [Example 43, 1-(carboxymethyl)-5-(1-hydroxyethyl)-3-(1-mercapto-3-phenyl-2-propyl)hydantoin]",1100,
"CC(C)Oc1ccc(C2C(=O)N(C(CS)Cc3ccccc3)C(=O)N2CC(=O)O)cc1 (stereo not drawn) [Example 58, 1-(carboxymethyl)-3-(1-mercapto-3-phenyl-2-propyl)-5-[4-(2-propyloxy)phenyl]hydantoin]",,28
"O=C(O)CN1C(=O)N(C(CS)Cc2ccccc2)C(=O)C12CCCC2 (stereo not drawn) [Example 41, 1-(carboxymethyl)-3-(1-mercapto-3-phenyl-2-propyl)hydantoin-5-spirocyclopentane]",460,460
"O=C(O)Cn1c(=O)n(C(CS)Cc2ccccc2)c(=O)n1C1CCCC1 (stereo not drawn) [Example 72, 1-(carboxymethyl)-2-cyclopentyl-4-(1-mercapto-3-phenyl-2-propyl)urazole]",,400
"O=C(O)CN1CC(=O)N(C(CS)Cc2ccccc2)C1=O (stereo not drawn) [Example 20, 1-(carboxymethyl)-3-(1-mercapto-3-phenyl-2-propyl)hydantoin]",5400,230
"CCC(C)[C@@H](C(=O)O)N1CC(=O)N(C(CS)Cc2ccccc2)C1=O (stereo partly drawn) [Example 29, 1-[(1S)-1-carboxy-2-methylbutyl]-3-(1-mercapto-3-phenyl-2-propyl)hydantoin]",,56
"O=C(O)CN1C(=O)N(C(CS)Cc2ccccc2)C(=O)C1c1ccccc1 (stereo not drawn) [Example 52, 1-(carboxymethyl)-5-phenyl-3-(1-mercapto-3-phenyl-2-propyl)hydantoin]",450,61
"CC(C)C1C(=O)N(C(CS)Cc2ccccc2)C(=O)N1CC(=O)O (stereo not drawn) [Example 36, 1-(carboxymethyl)-5-(1-methylethyl)-3-(1-mercapto-3-phenyl-2-propyl)hydantoin]",3400,
"O=C(O)CN1C(=O)N(C(CS)Cc2ccccc2)C(=O)C1C1c2ccccc2-c2ccccc21 (stereo not drawn) [Example 60, 1-(carboxymethyl)-5-(9-fluorenyl)-3-(1-mercapto-3-phenyl-2-propyl)hydantoin]",,180
"CC(C)C(CS)N1C(=O)N(CC(=O)O)C2(CCCC2)C1=O (stereo not drawn) [Example 65, 1-(carboxymethyl)-3-(1-mercapto-3-methyl-2-butyl)hydantoin-5-spirocyclopentane]",1000,
"CC(CS)N1C(=O)N(CC(=O)O)C2(CCCC2)C1=O (stereo not drawn) [Example 63, 1-(carboxymethyl)-3-(1-mercapto-2-propyl)hydantoin-5-spirocyclopentane]",180,
"O=C(O)CCC1C(=O)N(C(CS)Cc2ccccc2)C(=O)N1C1CCCC1 (stereo not drawn) [Example 19, 5-(2-carboxyethyl)-1-cyclopentyl-3-(1-mercapto-3-phenyl-2-propyl)hydantoin]",,160
"COc1ccc(C2C(=O)N(C(CS)Cc3ccccc3)C(=O)N2CC(=O)O)cc1 (stereo not drawn) [Example 56, 1-(carboxymethyl)-3-(1-mercapto-3-phenyl-2-propyl)-5-(4-methoxyphenyl)hydantoin]",,6.5
"C[C@@H](C(=O)O)N1CC(=O)N(C(CS)Cc2ccccc2)C1=O (stereo partly drawn) [Example 26, 1-[(1S)-1-carboxyethyl]-3-(1-mercapto-3-phenyl-2-propyl)hydantoin]",,170
"CC(C)[C@@H](C(=O)O)N1CC(=O)N(C(CS)Cc2ccccc2)C1=O (stereo partly drawn) [Example 21, 1-[(1S)-1-carboxy-2-methylpropyl)-3-(1-mercapto-3-phenyl-2-propyl)hydantoin]",,52

SMILES,IC50 (ACE) [nM],IC50 (NEP) [nM]
"CC(C)CC(CS)N1C(=O)CN(CC(=O)O)C1=O (stereo not drawn) [Example 66, 1-(carboxymethyl)-3-(1-mercapto-4-methyl-2-pentyl)-hydantoin]",,700
"O=C1CN(N2CCCCC2)C(=O)N1C(CS)Cc1ccccc1 (stereo not drawn) [Example 45, 3-(1-mercapto-3-phenyl-2-propyl)-1-piperidinylhydantoin]",,59
"O=C(O)CN1C(=O)N(C(CS)Cc2ccccc2)C(=O)C12CCC2 (stereo not drawn) [Example 50, 1-(carboxymethyl)-3-(1-mercapto-3-phenyl-2-propyl)-hydantoin-5-spirocyclobutane]",300,
"CC1(C)C(=O)N(C(CS)Cc2ccccc2)C(=O)N1CC(=O)O (stereo not drawn) [Example 40, 1-(carboxymethyl)-5,5-dimethyl-3-(1-mercapto-3-phenyl-2-propyl)hydantoin]",2400,
"O=C(O)CN1C(=O)N(C(CS)Cc2ccccc2)C(=O)C1C(c1ccccc1)c1ccccc1 (stereo not drawn) [Example 53, 1-(carboxymethyl)-5-(diphenylmethyl)-3-(1-mercapto-3-phenyl-2-propyl)hydantoin]",,230
"CCC(C)C1C(=O)N(C(CS)Cc2ccccc2)C(=O)N1CC(=O)O (stereo not drawn) [Example 42, 5-(2-butyl)-1-(carboxymethyl)-3-(1-mercapto-3-phenyl-2-propyl)hydantoin]",1600,
"O=C(O)[C@H](Cc1ccccc1)N1CC(=O)N(C(CS)Cc2ccccc2)C1=O (stereo partly drawn) [Example 27, 1-[(1S)-1-carboxy-2-phenylethyl]-3-(1-mercapto-3-phenyl-2-propyl)hydantoin]",,260
"CC(C)CC(CS)N1C(=O)N(CC(=O)O)C2(CCCC2)C1=O (stereo not drawn) [Example 67, 1-(carboxymethyl)-3-(1-mercapto-4-methyl-2-pentyl)hydantoin-5-spirocyclopentane]",510,160
"O=C1CN(C2CCCCC2)C(=O)N1C(CS)Cc1ccccc1 (stereo not drawn) [Example 3, 1-cyclohexyl-3-(1-mercapto-3-phenyl-2-propyl)hydantoin]",,250
"O=C(O)CC1C(=O)N(C(CS)Cc2ccccc2)C(=O)N1C1CCCC1 (stereo not drawn) [Example 18, 5-(carboxymethyl)-1-cyclopentyl-3-(1-mercapto-3-phenyl-2-propyl)hydantoin]",,250
"O=C(O)CN1C(=O)N(C(CS)Cc2ccccc2)C(=O)C1c1ccc(O)cc1 (stereo not drawn) [Example 55, 1-(carboxymethyl)-5-(4-hydroxyphenyl)-3-(1-mercapto-3-phenyl-2-propyl)hydantoin]",,90
"O=C1CN(C2CCCC2)C(=O)N1C(CS)Cc1ccccc1 (stereo not drawn) [Example 1, 1-cyclopentyl-3-(1-mercapto-3-phenyl-2-propyl)hydantoin]",,450
"O=C1CN(N2CCOCC2)C(=O)N1C(CS)Cc1ccccc1 (stereo not drawn) [Example 46, 3-(1-mercapto-3-phenyl-2-propyl)-1-(4-morpholinyl)hydantoin]",,110
O=C(O)CN1C(=O)N(C(CS)Cc2ccccc2)C(=O)C12CCCCC2 (stereo not drawn) [Example 34],200,
"O=C(O)CN1C(=O)N(C(CS)Cc2ccccc2)C(=O)C1C1CCCC1 (stereo not drawn) [Example 51, 1-(carboxymethyl)-5-cyclopentyl-3-(1-mercapto-3-phenyl-2-propyl)hydantoin]",370,560
"O=C(O)CN1C(=O)N(C(CS)Cc2ccccc2)C(=O)C12Cc1ccccc1C2 (stereo not drawn) [Example 44, 1-(carboxymethyl)-3-(1-mercapto-3-phenyl-2-propyl)hydantoin-5-spiro-2'-indane]",680,99
